The text below walks through data of patent US9775859B2, “Methods and compositions for preventing and treating a disease related to glycan dysregulation” (Sinai Health System, priority 2005, dated 2017).

Each structure is given as a SMILES string. “Also recorded” adds a separate entry of the source.

Assay [1] relates to Jurkat T-cells. The assay can be described thus: LEA-FITC staining (poly-N-acetyllactosamine) of Jurkat T cells, FACS. In kind it is cell-based, human. The settings on record: 3 days culture with supplement. On the procedure:
(§1) Mice used for L-PHA staining and quantitative RT-PCR were sex and age matched. […] 129/Sv mice were from an original Mgat5 gene targeted population (28). All other mice (SJL, NOD, Balb/c and B10.S) were obtained from Jackson Laboratories. […] Mouse and Jurkat cells were stained with L-PHA and LEA by first blocking with PBA (2% bovine serum albumin/0.01% azide/PBS) for 10 min at 4° C. and then incubated with 4 μg/ml of L-PHA-FITC (Vector Laboratories Inc.) or 20 μg/ml of LEA-FITC (Sigma) in PBA for 40 min at 4° C. and analyzed by a BD FACSCalihur (BD Pharmingen, San Diego, Calif.). The level of lectin binding was normalized by untreated control and calculated as a percentage (Sample intensity/control intensity-1) %.
(§2) Mice used for L-PHA staining and quantitative RT-PCR were sex and age matched. […] 129/Sv mice were from the original Mgat5 gene targeted population (28). All other mice (SJL, NOD, Balb/c and B10.S) were obtained from Jackson Laboratories. Mouse cells were stained with anti-CD4 (RM4-5), anti-CD8 (53-6.7), anti-CD45R (RA3-6B2) from eBioscience, and L-PHA (4 μg/ml) and LEA (20 μg/ml) from Sigma. […] Jurkat T-cells were cultured in either glutamine free RPMI 1640, 10% FBS, 10 mM/20 mM glucose or glucose/glutamine free DMEM base media supplemented with 10% FBS, 1.5 mM glucose. The indicated monosaccharides and/or metabolites were added daily except glucose which was added only at time zero.

The test system of assay [2] is Jurkat T-cells. The assay can be described thus: L-PHA-FITC staining of Jurkat T cells cultured 3 days with monosaccharides, metabolites, Vitamin D3 or glycosidase inhibitors, FACS. Format: cell-based, human. The settings on record: for Mgat5 N-glycans / β1,6GlcNAc-branched N-glycans expression (L-PHA staining): 3 days culture with supplement; for Mgat5-modified N-glycan expression: Jurkat T. The procedure:
as §1, §2

Assay [3] concerns PL/J and C57/B6 T cell cultures. The assay can be described thus: L-PHA staining of mouse CD3+ T cells stimulated with anti-CD3, FACS. In kind it is cell-based. To be noted: for up-regulation of β1,6 GlcNAc branched N-glycans following stimulation: anti-CD3, minimal concentrations; for resting levels of β1,6 GlcNAc branched N-glycans: minimal concentrations. On the procedure:
as §1
Mice used for L-PHA staining and quantitative RT-PCR were sex and age matched. […] 129/Sv mice were from the original Mgat5 gene targeted population (28). All other mice (SJL, NOD, Balb/c and B10.S) were obtained from Jackson Laboratories. Mouse cells were stained with anti-CD4 (RM4-5), anti-CD8 (53-6.7), anti-CD45R (RA3-6B2) from eBioscience, and L-PHA (4 μg/ml) and LEA (20 μg/ml) from Sigma. […] The indicated monosaccharides and/or metabolites were added daily except glucose which was added only at time zero. […] The plateau or highest non-toxic dose is shown.

In assay [4] the test system is CHO cells. Description: MALDI-TOF mass spectroscopy N-glycan profile of CHO cells. Format: cell-based, Chinese Hamster. The settings on record: CHO cells treated with inhibitor. On the procedure: This was done as a service at the Glycotechnology core facility, a resource of the Glycobiology Research and Training Center (GRTC) at the University of California, San Diego. CD3+ murine T cells (6×10^6), resting PBMCs from human controls and MS subjects (6×10^6) and CHO cells (10×10^6) were lysed with 1% SDS in 100 mM Tris pH 7.4, dialyzed to remove SDS, digested with trypsin to generate glycopeptides and treated with PNGaseF to release the N-glycans. To focus on early processing, N-glycans were desialylated by mild acid digestion prior to permethylation and MALDI-TOF mass spectroscopy. Monoisotopic peaks in the spectra were identified using GlycanMass and GlycoMod online software, with specific targeting of the N-glycan intermediates occurring during Golgi processing.
(§3) For comparison of N-glycan profiles of mice and human MS patients, CHO cells and CHO cells deficient at 5 different steps in the N-glycan pathway (Glucosidase I, Mannosidase I, MGAT1, Mannosidase II and MGAT5, FIG. 7A) were used to define relative L-PHA and Concanavillin A (ConA) lectin staining levels by FACS along with MALDI TOF N-glycan processing profiles. […] Indeed, a human infant with severe human glucosidase I deficiency accumulates Glc3Man (885 A ion in FIG. 16A, 21C) in the urine, a 4 hexose oligomer which derives from the Glucosidase I substrate Glc3Man9GlcNAc2 via endo-mannosidase activity (70). […] Such activity would produce Man8GlcNAc2, Man7GlcNAc2 and Man6GlcNAc2 structures and allow processing by Mannosidase I/II. Indeed, N-glycans of these 3 compositions accumulate in Glucosidase I/II inhibited cells when Mannosidase I activity is blocked with DMN (69). The larger structures Glc3Man9GlcNAc2 (mass 3008) and Glc3Man7GlcNAc2 (mass 2600) were also observed (67), however they were at lower relative intensities compared to the A ion group (FIG. 21C). […] Mixing CHO and Lec1 cells in various proportions confirmed that relative differences in expression of N-glycan structures can be determined using MALDI TOF (FIG. 21G).

Assay [5] deals with CHO cells. Description: L-PHA and ConA lectin staining of CHO cells by FACS. The settings on record: CHO cells treated with inhibitor. In kind it is cell-based, Chinese Hamster.
Source text: as §3
On the technique in general: In flow cytometry, cells or beads pass a laser one at a time.

In assay [6] the test system is Jurkat T-cells. The assay can be described thus: MS/MS mass spectroscopy of sugar-nucleotide expression in Jurkat cell lysates. Format: cell-based, human. On the procedure: Jurkat cell pellets (20×10^6) were resuspended in a cold 300 μl methanol:water (1:1) solution containing maltose as internal standard, vortexed for 10 seconds, and then pipetted into tubes containing 600 μl of chloroform:methanol (C:M) (3:2). Samples were vortexed for 1 minute, and then centrifuged at 14,000 rpm for 5 minutes at 4° C. Supernatants were collected, and an equal volume of C:M (1:1) was added, followed by a second extraction. The pooled aqueous fraction containing the hydrophilic metabolites was dried with a speedvac and stored at −80° C. Prior to injection, the samples were dissolved in 100 μl methanol:water (1:1). […] The metabolites were identified by their transitions in MS/MS, and quantified using the Analyte Software (SCIEX), which measured the area under the curve for the fragment ions corresponding to each parent ion. Quantities for the given substrates are graphed as pmole/min/10^6 cells.
JurkaT-cell pellets (20×10^6) were resuspended in cold 300 μl methanol:water (1:1) solution containing maltose as an internal standard, vortexed for 10 seconds, and then pipetted into tubes containing 600 μl of chloroform:methanol (C:M) (3:2). […] The metabolites were identified by their transitions in MS/MS, and quantified using the Analyte Software (SCIEX), which measured the area under the curve for the fragment ions corresponding to each parent ion. […]

As for `N` [ammonia], in assay [1], the “poly-N-acetyllactosamine expression (LEA staining)” value (shortened to “poly-N-acetyllactosamine expression”) is on record as “dose dependently increased”. The “Mgat5 N-glycans / β1,6GlcNAc-branched N-glycans expression (L-PHA staining)” value in assay [2] (Jurkat T-cells) is recorded as “dose dependently increased”.
As to `N[C@H]1C(O)O[C@H](CO)[C@@H](O)[C@@H]1O` (stereo partly drawn) [Glucosamine], the “Mgat5-modified N-glycan expression” value is given as “do the opposite; also recorded: declines” in assay [2] (high concentrations) and “increase; also recorded: works” in assay [2] (low concentrations).
As to `O[C@H]1[C@H](O)[C@@H](O)CN2CC[C@H](O)[C@H]12` [castanospermine, reference compound], the “Mgat5 glycan / β1,6GlcNAc-branched N-glycan expression after glycosidase inhibition (L-PHA)” value in assay [2] (Jurkat T cells, 3 days) is on record as “dose dependent reduction; also recorded: reduced”. For the same molecule, the “up-regulation of β1,6 GlcNAc branched N-glycans following stimulation” value in assay [2] (Jurkat T cells, PMA/ionomycin or anti-CD3, minimal concentrations, listed as CST) is given as “significantly attenuated”; in assay [3] (listed as CST), “significantly attenuated”. The “resting levels of β1,6 GlcNAc branched N-glycans” value in assay [2] (Jurkat T cells, minimal concentrations, listed as CST) is “without affecting; also recorded: do not affect”; in assay [3] (listed as CST), “without affecting; also recorded: do not affect”.
For the molecule `CC(=O)N[C@H]1C(OC(C)=O)O[C@H](COC(C)=O)[C@@H](OC(C)=O)[C@@H]1OC(C)=O` (stereo partly drawn) [GlcNAc-tetra-acetate], the “effective concentration to increase Mgat5-modified N-glycan expression, fold less than GlcNAc” value in assay [2] (Jurkat T-cells, 3 days) is on record as roughly 1000 fold.
Take `O=c1cc[nH]c(=O)[nH]1` [uracil]: the “effective concentration required to raise Mgat5-modified N-glycan expression, fold reduction compared to uridine” value in assay [2] (Jurkat T-cells, 3 days) is roughly 100 fold.
`CC(=O)CC(=O)O` [acetoacetate]: the “poly-N-acetyllactosamine expression” value in assay [1] was “dose dependently increased”. Further, the “Mgat5 N-glycans / β1,6GlcNAc-branched N-glycans expression (L-PHA staining)” value in assay [2] (Jurkat T-cells) is “dose dependently increased”.
In the case of `NC(=O)CC[C@H](N)C(=O)O` [glutamine], the “poly-N-acetyllactosamine expression” value in assay [1] is “dose dependently increased”. Besides, the “Mgat5 N-glycans / β1,6GlcNAc-branched N-glycans expression (L-PHA staining)” value in assay [2] (Jurkat T-cells) is “dose dependently increased”.
As to `OC[C@H]1NC[C@@H](O)[C@@H](O)[C@@H]1O` [deoxymannojirimycin], in assay [4], the “MALDI TOF profile of N-glycans (accumulated structures)” value is “dramatic increases in high mannose structures” and the “β1,6GlcNAc-branched tetra-antennary N-glycans (mass 2969, structure G)” value is reported as “diminished”. Moreover, in assay [3] (listed as DMN), the “up-regulation of β1,6 GlcNAc branched N-glycans following stimulation” value is given as “significantly attenuated” and the “resting levels of β1,6 GlcNAc branched N-glycans” value is recorded as “without affecting; also recorded: do not affect”. Further, in assay [5], the “high-mannose structures as seen by ConA staining” value was “increased” and the “β1,6GlcNAc-branched N-glycan expression by L-PHA staining” value is “dramatic reductions”.
For `O=c1ccn([C@@H]2O[C@H](CO)[C@@H](O)[C@H]2O)c(=O)[nH]1` [uridine], the “poly-N-acetyllactosamine expression” value in assay [1] is on record as “dose dependently increased”. Also, in assay [2] (Jurkat T-cells), the “Mgat5 N-glycans / β1,6GlcNAc-branched N-glycans expression (L-PHA staining)” value is “dose dependently increased”. For the same molecule, in assay [6], the “intracellular UDP-GlcNAc levels” value was “dramatically raised”.
